The results in this text go back to patent publication US8247377B2, “Non-steroidal glucocorticoid inhibitors and their use in treating inflammation, allergy and auto-immune conditions” (Glaxo Group Limited, priority 2006, dated 2012).

Where only a bound is given, the exact number is not on record here.

For the experiment, the target named is T1, glucocorticoid receptor (Homo sapiens, UniProt P04150).
T1 construct: a partially purified full length glucocorticoid receptor
T1 sequence (P04150 1-777): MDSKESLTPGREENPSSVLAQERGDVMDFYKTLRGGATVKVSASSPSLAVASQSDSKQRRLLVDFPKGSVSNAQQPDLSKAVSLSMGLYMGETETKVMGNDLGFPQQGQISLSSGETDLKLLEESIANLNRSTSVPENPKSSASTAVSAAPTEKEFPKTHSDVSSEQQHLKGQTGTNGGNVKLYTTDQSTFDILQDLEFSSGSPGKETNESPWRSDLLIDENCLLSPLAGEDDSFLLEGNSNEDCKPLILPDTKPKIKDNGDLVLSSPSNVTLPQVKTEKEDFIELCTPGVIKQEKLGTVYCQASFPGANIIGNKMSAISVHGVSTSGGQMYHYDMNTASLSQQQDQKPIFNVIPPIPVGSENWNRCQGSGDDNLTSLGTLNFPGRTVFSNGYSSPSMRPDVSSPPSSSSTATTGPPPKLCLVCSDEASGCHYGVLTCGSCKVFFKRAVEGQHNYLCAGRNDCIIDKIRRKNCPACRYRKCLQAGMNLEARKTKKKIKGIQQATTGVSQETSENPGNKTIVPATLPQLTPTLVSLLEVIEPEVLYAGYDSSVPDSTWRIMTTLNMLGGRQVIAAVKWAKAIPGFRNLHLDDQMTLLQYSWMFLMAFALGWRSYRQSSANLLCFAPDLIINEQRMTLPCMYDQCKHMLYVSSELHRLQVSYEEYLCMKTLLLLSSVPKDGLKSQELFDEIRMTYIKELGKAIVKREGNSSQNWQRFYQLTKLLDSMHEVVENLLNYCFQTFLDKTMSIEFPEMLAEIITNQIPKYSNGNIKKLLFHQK
Nature of the experiment: Glucocorticoid receptor binding assay (fluorescence polarisation). Particulars: competition with Alexa 555 fluorescently-labelled dexamethasone derivative, full length glucocorticoid receptor; read-out: glucocorticoid binding pIC50 (converted). The method in brief:
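Compounds in DMSO incubated with fluorescent dexamethasone and partially purified full-length GR plus stabilising buffer components, 2 hrs at room temperature in the dark. Displacement read as decrease in fluorescence polarisation; pIC50 estimated from dose-response curves.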
As for `Nc1c(C(=O)NCC(O)(CNC(=O)c2c(Cl)cccc2Br)C(F)(F)F)cnn1-c1ccc(F)cc1` (single isomer, unassigned) [Example 12 Enantiomer 1, 5-Amino-N-[2-({[(2-bromo-6-chlorophenyl)carbonyl]amino}methyl)-3,3,3-trifluoro-2-hydroxypropyl]-1-(4-fluorophenyl)-1H-pyrazole-4-carboxamide], the IC50 is no more than 0.316 µM.
Turning to `Nc1c(C(=O)NCC(O)(CNC(=O)c2c(F)cccc2Br)C(F)(F)F)cnn1-c1ccc(F)cc1` (single isomer, unassigned) [Example 13 Enantiomer 1, 5-Amino-N-[2-({[(2-bromo-6-fluorophenyl)carbonyl]amino}methyl)-3,3,3-trifluoro-2-hydroxypropyl]-1-(4-fluorophenyl)-1H-pyrazole-4-carboxamide], the IC50 was no more than 0.316 µM.
Under `Nc1c(C(=O)NCC(O)(CNC(=O)c2c(Cl)cccc2OC(F)F)C(F)(F)F)cnn1-c1ccc(F)cc1` (single isomer, unassigned) [Example 14 Enantiomer 1, 5-Amino-N-(2-{[({2-chloro-6-[(difluoromethyl)oxy]phenyl}carbonyl)amino]methyl}-3,3,3-trifluoro-2-hydroxypropyl)-1-(4-fluorophenyl)-1H-pyrazole-4-carboxamide] stands no more than 0.316 µM; under `Nc1c(C(=O)NCC(O)(CNC(=O)c2c(C(F)F)cccc2C(F)F)C(F)(F)F)cnn1-c1ccc(F)cc1` (single isomer, unassigned) [Example 43 Enantiomer 1, 5-Amino-N-{2-[({[2,6-bis(difluoromethyl)phenyl]carbonyl}amino)methyl]-3,3,3-trifluoro-2-hydroxypropyl}-1-(4-fluorophenyl)-1H-pyrazole-4-carboxamide], no more than 0.316 µM; under `Nc1c(C(=O)NCC(O)(CNC(=O)c2c(Cl)cccc2C(F)(F)F)C(F)(F)F)cnn1-c1ccc(F)cc1` (single isomer, unassigned) [Example 44 Enantiomer 1, 5-Amino-N-{2-[({[2-chloro-6-(trifluoromethyl)phenyl]carbonyl}amino)methyl]-3,3,3-trifluoro-2-hydroxypropyl}-1-(4-fluorophenyl)-1H-pyrazole-4-carboxamide], no more than 0.316 µM.
Under `Nc1c(C(=O)NCC(O)(CNC(=O)c2c(Br)cccc2C(F)(F)F)C(F)(F)F)cnn1-c1ccc(F)cc1` (single isomer, unassigned) [Example 45 Enantiomer 1, 5-Amino-N-{2-[({[2-bromo-6-(trifluoromethyl)phenyl]carbonyl}amino)methyl]-3,3,3-trifluoro-2-hydroxypropyl}-1-(4-fluorophenyl)-1H-pyrazole-4-carboxamide] stands no more than 0.316 µM.
Under `Nc1c(C(=O)NCC(O)(CNC(=O)c2c(F)cccc2OC(F)F)C(F)(F)F)cnn1-c1ccc(F)cc1` (single isomer, unassigned) [Example 48 Enantiomer 1, 5-Amino-N-(2-{[({2-[(difluoromethyl)oxy]-6-fluorophenyl}carbonyl)amino]methyl}-3,3,3-trifluoro-2-hydroxypropyl)-1-(4-fluorophenyl)-1H-pyrazole-4-carboxamide] stands no more than 0.316 µM.
